Values after ≈ are worked out from the molar mass of the structure shown. Read-outs that look alike come from different tables or passages of the source.
Key:
[1] = system: Pseudomonas aeruginosa ATCC 27853; assay: MIC by microbroth dilution, P. aeruginosa 27853; format: cell-based; settings: for MIC: Pseudomonas aeruginosa, ATCC27853, 24 h 37° C., read-out: MIC S4 = P. aeruginosa 27853; for MIC S4 = P. aeruginosa 27853: 24 h 37° C.
Experimental: (§1) Minimum Inhibitory Concentration (MIC) Determination:
(§2) Bacteria used in this study were Staphylococcus aureus ATCC 29213, Escherichia coli ATCC 25922, Escherichia coli K12, Staphylococcus aureus ATCC 33591, Pseudomonas aeruginosa ATCC 27853, and Enterococcus faecalis ATCC 29212. All compounds were tested by the microbroth dilution method following Clinical and Laboratory Standards Institute guidelines. Briefly, Mueller-Hinton broth (Difco Laboratories, Becton Dickinson) was inoculated with each organism and incubated at 37° C. with shaking to establish logarithmic growth. Following incubation, each culture was pelleted by centrifugation (3,500×g for 5 min) and resuspended in 0.85% sterile saline solution to an optical density at 625 nm of 0.1. Samples were tested in triplicate using 96 well microplates (Corning Costar Corp. Cambridge, Mass.), yielding final bacterial concentrations of 5×10^5 CFU/mL, and incubated for 24 h at 37° C. Following incubation, optical densities of each well were determined with a μQuant microplate spectrophotometer (BioTek Instruments, Inc., Winooski, Vt.) at 625 nm.

[2] = target: T1, human DNA topoisomerase I (Homo sapiens, UniProt P11387); assay: Inhibition assay against human DNA topoisomerase I (plasmid relaxation, agarose gel); format: biochemical; settings: for IC50: 2 units enzyme, supercoiled pBAD-GFPuv, 30 min 37° C., read-out: IC50 hTopo I; for supercoiled DNA template prevented from relaxation by human DNA topoisomerase I: 50 μM compound
T1 sequence (P11387 1-765): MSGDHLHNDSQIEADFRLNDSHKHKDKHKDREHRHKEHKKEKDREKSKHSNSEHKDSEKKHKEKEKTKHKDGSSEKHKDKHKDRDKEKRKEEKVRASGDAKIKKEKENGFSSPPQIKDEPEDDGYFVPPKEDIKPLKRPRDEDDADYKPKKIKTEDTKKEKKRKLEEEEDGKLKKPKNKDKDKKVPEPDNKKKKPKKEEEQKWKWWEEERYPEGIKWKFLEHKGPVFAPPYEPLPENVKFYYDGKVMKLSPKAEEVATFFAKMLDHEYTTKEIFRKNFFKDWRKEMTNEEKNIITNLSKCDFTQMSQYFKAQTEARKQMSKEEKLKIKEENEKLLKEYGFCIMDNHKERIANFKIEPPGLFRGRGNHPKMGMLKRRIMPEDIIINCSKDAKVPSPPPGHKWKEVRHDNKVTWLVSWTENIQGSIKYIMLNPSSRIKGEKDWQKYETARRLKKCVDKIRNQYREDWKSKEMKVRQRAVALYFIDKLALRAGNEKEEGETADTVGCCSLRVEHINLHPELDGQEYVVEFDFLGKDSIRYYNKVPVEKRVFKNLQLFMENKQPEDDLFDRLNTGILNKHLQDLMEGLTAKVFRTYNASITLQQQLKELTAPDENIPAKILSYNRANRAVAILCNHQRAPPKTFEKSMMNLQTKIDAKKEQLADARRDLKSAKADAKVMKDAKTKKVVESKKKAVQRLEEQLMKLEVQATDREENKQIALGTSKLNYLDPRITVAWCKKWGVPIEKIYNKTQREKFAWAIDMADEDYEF
Experimental: Inhibition Assays Against Human DNA Topoisomerase I:
The inhibition assays were used to determine the activities of the newly synthesized compounds against Human DNA topoisomerase I. The reaction mixture (25 μl) contained 20 mM Tris-HCl at pH 7.9, 50 mM KAc, 10 mM Mg(Ac)2, 1 mM DTT, 1 μg/ml BSA, 250 ng of the supercoiled plasmid pBAD-GFPuv, 2 units of Human DNA topoisomerase I, and one of the compounds at a final concentration that ranges from 5 to 50 μM. All components were assembled on ice and incubated for 30 minutes at 37° C. After the incubation, the reactions were terminated by extraction with an equal volume of phenol. The topological state of the DNA samples was analyzed with 1% agarose gel electrophoresis in 1×TAE buffer, pH 7.8. Following electrophoresis, the agarose gel was stained with Ethidium Bromide, destained, and photographed under UV light. The intensity of DNA topoisomers was determined using KODAK 1D Image Analysis Software. The percentage of (−) supercoiled DNA was calculated from a comparison of the intensity of the (−) supercoiled band with the total intensity of all DNA topoisomers. The IC50 was calculated as the amount of the drug for which 50% of the DNA was in a (−) supercoiled state.

[3] = system: Staphylococcus aureus ATCC 29213; assay: MIC by microbroth dilution, S. aureus 29213; format: cell-based; settings: for MIC: Staphylococcus aureus, ATCC29213, 24 h 37° C., read-out: MIC S1 = S. aureus 29213; for MIC S1 = S. aureus 29213: 24 h 37° C.
Experimental: as §1, §2

[4] = system: Staphylococcus aureus ATCC 33591; assay: MIC by microbroth dilution, S. aureus 33591; format: cell-based; settings: for MIC: Staphylococcus aureus, ATCC33591, 24 h 37° C., read-out: MIC S2 = S. aureus 33591; for MIC S2 = S. aureus 33591: 24 h 37° C.
Experimental: as §1, §2

[5] = system: DU 145 cell line; assay: Cytotoxicity, sulforhodamine B assay; format: cell-based; settings: for IC50: 48 h treatment, SRB stain, read-out: IC50 against DU-145
Experimental: Cytotoxicity Experiments:
The DU 145 cell line was cultured according to ATCC protocols. Cells were harvested using trypsin-EDTA solution and counted using trypan blue exclusion. Cells were seeded at a volume of 100 μl/well in the wells of tissue culture treated 96 well plates at a density of […] per well. Seeded 96 well plates were returned to incubator (37° C., 5% CO2) for twenty-four hours to resume exponential growth.
Cell lines were then treated with 100 μl of each test compound or cisplatin in triplicate. The final concentrations of each treatment were: 20, 10, 5, 2.5, 1.25, 0.625 and 0.0625 μM. Each plate also contained wells containing untreated cells and media only as controls. After receiving treatments, the 96 well plates were returned to incubator (37° C., 5% CO2) for forty-eight hours.
After forty-eight hours of treatment, the treated plates were fixed with trichloroacetic acid and stained with sulforhodamine B using a modified version of the protocol described by Skehan et al. In short, 50 μl of cold 80% TCA was added to each well, at a final concentration of 16% TCA, and plates were incubated at 4° C. for one hour. The media and TCA solution was discarded and plates were washed four times using room temperature tap water. Plates were allowed to air dry overnight. Plates were stained with the addition of 70 μl/well of […] SRB in 1% (v/v) acetic acid solution. Samples were stained for fifteen minutes and then stain was discarded. Plates were then washed four times with 1% (v/v) acetic acid solution to remove unbound stain and allowed to air dry overnight at room temperature. Finally, SRB stain was solubilized by adding 150 μl of 10 mM unbuffered Tris base to each well. The absorbance of each samples at 560 nm was recorded using a Tecan plate reader and the IC50 was determined using Origin 4.0 software. Each study was completed in duplicate.

[6] = system: Enterococcus faecalis ATCC 29212; assay: MIC by microbroth dilution, E. faecalis 29212; format: cell-based; settings: for activity against E. faecalis 29212 (in words): comment on Table 4; for MIC: Enterococcus faecalis, ATCC29212, read-out: MIC S6 = E. faecalis 29212; for MIC / MIC S6 = E. faecalis 29212: microbroth dilution, 24 h 37° C.
Experimental: as §1, §2

[7] = system: Escherichia coli ATCC 25922; assay: MIC by microbroth dilution, E. coli 25922; format: cell-based; settings: for MIC: Escherichia coli, ATCC25922, 24 h 37° C., read-out: MIC S3 = E. coli 25922; for MIC S3 = E. coli 25922: 24 h 37° C.
Experimental: as §1, §2

Compound | MIC [1] | IC50 [2] | MIC [3] | MIC [4] | melting point | IC50 ([5]; Homo sapiens, DU-145) | activity against E. faecalis 29212 (in words) [6] | MIC [7] | MIC [6] | supercoiled DNA template prevented from relaxation by human DNA topoisomerase I [2] | MIC S4 = P. aeruginosa 27853 [1] | MIC S1 = S. aureus 29213 [3] | MIC S2 = S. aureus 33591 [4] | MIC S6 = E. faecalis 29212 [6] | MIC S3 = E. coli 25922 [7] | cytotoxicity relative to Hoechst 33242 ([5]; DU-145, 48 h) | IC50 [5]
C#CCOCCCCOc1ccc(-c2nc3ccc(-c4nc5ccc(N6CCN(C)CC6)cc5[nH]4)cc3[nH]2)cc1 [DPA 154, 6-(4-methylpiperazin-1-yl)-2′-(4-(4-(prop-2-ynyloxy)butoxy)phenyl)-1H,3′H-2,5′-bibenzo[d]imidazole] | 16 µg/mL (≈ 29.9 µM) | > 50 µM | 2 to 4 µg/mL (≈ 3.74 to 7.48 µM) | 2 to 4 µg/mL (≈ 3.74 to 7.48 µM) | 150 to 155 °C | 2.79 ± 0.13 µM | markedly improved activity | 8 to 16 µg/mL (≈ 15 to 29.9 µM) |  |  |  |  |  |  |  |  | 
C#CCCCCCCCCCOc1ccc(-c2nc3ccc(-c4nc5ccc(N6CCN(C)CC6)cc5[nH]4)cc3[nH]2)cc1 [DPA 153, 6-(4-methylpiperazin-1-yl)-2′-(4-(undec-10-ynyloxy)phenyl)-1H,3′H-2,5′-bibenzo[d]imidazole] |  | > 50 µM |  |  | 170 to 175 °C | > 10 µM |  |  | 16 to 32 µg/mL (≈ 27.8 to 55.7 µM) |  |  |  |  |  |  |  | 
C#CCOc1ccc(-c2nc3ccc(-c4nc5ccc(N6CCN(C)CC6)cc5[nH]4)cc3[nH]2)cc1 [DPA 151, 6-(4-methylpiperazin-1-yl)-2′-(4-(prop-2-ynyloxy)phenyl)-1H,3′H-2,5′-bibenzo[d]imidazole] |  | 25.4 ± 2.2 µM | 2 to 4 µg/mL (≈ 4.32 to 8.65 µM) | 2 to 4 µg/mL (≈ 4.32 to 8.65 µM) |  | 3.24 ± 0.71 µM |  | 8 µg/mL (≈ 17.3 µM) | 16 to 32 µg/mL (≈ 34.6 to 69.2 µM) | about 70% |  |  |  |  |  |  | 
CN1CCN(c2ccc3[nH]c(-c4ccc5[nH]c(-c6ccc(O)cc6)nc5c4)nc3c2)CC1 [Hoechst 33258, reference compound] |  | 22.9 ± 1.55 µM |  |  |  |  | not good inhibitors |  |  | about 70% | 16 µg/mL (≈ 37.7 µM) | ≥32^ ^ μg/ml | 16 to 32 µg/mL | 16 to 32 µg/mL | 16 µg/mL (≈ 37.7 µM) |  | 
C#CCCCCOc1ccc(-c2nc3ccc(-c4nc5ccc(N6CCN(C)CC6)cc5[nH]4)cc3[nH]2)cc1 [DPA 152, 2′-(4-(hex-5-ynyloxy)phenyl)-6-(4-methylpiperazin-1-yl)-1H,3′H-2,5′-bibenzo[d]imidazole] | 16 µg/mL (≈ 31.7 µM) | > 50 µM | 2 to 4 µg/mL (≈ 3.96 to 7.93 µM) | 2 to 4 µg/mL (≈ 3.96 to 7.93 µM) | 210 to 220 °C | 2.12 ± 0.46 µM | markedly improved activity | 8 to 16 µg/mL (≈ 15.9 to 31.7 µM) | 4 µg/mL (≈ 7.93 µM) |  |  |  |  |  |  | nearly twice as toxic as Hoechst 33242 | 
CCOc1ccc(-c2nc3ccc(-c4nc5ccc(N6CCN(C)CC6)cc5[nH]4)cc3[nH]2)cc1 [Hoechst 33342, reference compound] |  | > 50 µM |  |  |  |  | not good inhibitors |  |  |  | 16 µg/mL (≈ 35.4 µM) | 2 to 4 µg/mL | 2 to 4 µg/mL | 16 to 32 µg/mL | 8 to 16 µg/mL |  | 4.25 µM

— US9920014B2, “Selective inhibition of bacterial topoisomerase I” (THE FLORIDA INTERNATIONAL BOARD OF TRUSTEES MODESTO A. …, priority 2013, dated 2018)
